Bounds are passed on as bounds.

The first assay has as its system 80S14 (p21-deficient) cells. Put plainly: Cytotoxicity assay using isogenic cell lines: IC50 in 80S14 (p21-deficient) cells, SRB. The class given is cell-based, human. Conditions: 80S14 p21-deficient cells, 5 days incubation, SRB; read-out: IC50 for 80SI4. Summed up:
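80S14 (p21-deficient) cells seeded at 12,000 cells/well overnight, then exposed 5 days at 37 °C to serial dilutions (5 pM–50 μM or 170 pg/ml–10 μg/ml). TCA-fixed, sulforhodamine B-stained, absorbance at 560 nm; IC50 taken from cytotoxicity curves versus untreated controls.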
What is called IC50 is the midpoint of a concentration-inhibition curve. As to `O=C(CNC(=O)C12CC3CC(CC(C3)C1)C2)Nc1cccc(-c2ccnc3c(C(=O)c4cccs4)cnn23)c1` [Example 134, N-[2-oxo-2-({3-[3-(thien-2-ylcarbonyl)pyrazolo[1,5-a]pyrimidin-7-yl]phenyl}amino)ethyl]adamantine-1-carboxamide], the concentration for half-maximal inhibition (IC50) was 1 to 10 µM.

Still in this assay, the particulars now being: Homo sapiens, 80S14, 120 h, read-out: IC50 for 80S14 (uM).
For `CC(C)OC(=O)Nc1cccc(-c2ccnc3c(C(=O)C4CCCC4)cnn23)c1` [Example 295, Isopropyl 3-[3-(cyclopentylcarbonyl)pyrazolo[1,5-a]pyrimidin-7-yl]phenylcarbamate], the half-inhibitory concentration (IC50) was 1 to 10 µM.

Turning to `O=CNc1cccc(-c2ccnc3c(C(=O)c4cccs4)cnn23)c1` [Example 260, N-[3-[3-(2-Thienylcarbonyl)pyrazolo[1,5-a]pyrimidin-7-yl]phenyl}-formamide], the half-maximal inhibitory concentration (IC50) lay within 1 to 10 µM.

Still in this assay, the particulars now being: Homo sapiens, 80S14, 120 h, read-out: IC50 for 80SI4 (uM).
Turning to `CC(C)COC(=O)Nc1cccc(-c2ccnc3c(C(=O)c4cccs4)cnn23)c1` [Example 16, isobutyl 3-[3-(thien-2-ylcarbonyl)pyrazolo[1,5-a]pyrimidin-7-yl]phenylcarbamate], the concentration for half-maximal inhibition (IC50) is under 1 µM. Same read-out and setting: the same measure for `C=CCCOC(=O)Nc1cccc(-c2ccnc3c(C(=O)c4cccs4)cnn23)c1` [Example 20, 3-butenyl 3-[3-(2-thienylcarbonyl)pyrazolo[1,5-a]pyrimidin-7-yl]phenylcarbamate]: under 1 µM.

The assay is the same for the next values; noted with them: Homo sapiens, 120 h; 80S14 (p21-deficient) cells, 5 days, SRB; class symbols; read-out: IC50 for 80S14.
As for `CC(C)CNc1cccc(-c2ccnc3c(C(=O)c4cccs4)cnn23)c1` [Example 404, {7-[3-(Isobutylamino)phenyl]pyrazolo[1,5-a]pyrimidin-3-yl}(thien-2-yl)methanone], the half-inhibitory concentration (IC50) lay in the range of 1 to 10 µM. Same read-out and setting: the figure for `CCC(CC)CNc1cccc(-c2ccnc3c(C(=O)c4cccs4)cnn23)c1` [Example 403, (7-{3-[(2-Ethylbutyl)amino]phenyl}pyrazolo[1,5-a]pyrimidin-3-yl)(thien-2-yl)methanone] is 1 to 10 µM.

For the compound `O=C(c1cccs1)c1cnn2c(-c3cccc(NC(=O)C4CO4)c3)ccnc12` (centres unmarked) [Example 277, N-{3-[3-(2-Thienylcarbonyl)pyrazolo[1,5-a]pyrimidin-7-yl]phenyl}-2-oxiranecarboxamide], the IC50 is under 1 µM. On the same count and under the same terms, the figure for `O=C(Nc1cccc(-c2ccnc3c(C(=O)c4cccs4)cnn23)c1)OCc1ccncc1` [Example 416, Pyridin-4-ylmethyl 3-[3-(thien-2-ylcarbonyl)pyrazolo[1,5-a]pyrimidin-7-yl]phenylcarbamate] is under 1 µM. Same read-out and setting: the same measure for `O=C(c1cccs1)c1cnn2c(-c3cccc(C(F)(F)F)c3)ccnc12` [Example 223, [7-(3-Trifluoromethylphenyl)pyrazolo[1,5-a]-pyrimidin-3-yl}-2-thienyl-methanone]: 1 to 10 µM; for `Cc1nn2c(-c3cccc(NC(=O)OC(C)C)c3)ccnc2c1C(=O)c1cccs1` [Example 308, Isopropyl 3-[2-methyl-3-(2-thienylcarbonyl)pyrazolo[1,5-a]pyrimidin-7-yl]phenylcarbamate]: 10 to 50 µM.

Still in this assay, the particulars now being: Homo sapiens, 120 h; 80S14 p21-deficient cells, 5 days incubation, SRB; read-out: IC50 for 80SI4.
As to `O=C(CCCl)Nc1cccc(-c2ccnc3c(C(=O)c4cccs4)cnn23)c1` [Example 139, 3-chloro-N-{3-[3-(thien-2-ylcarbonyl)pyrazolo[1,5-a]pyrimidin-7-yl]phenyl}propanamide], the IC50 is under 1 µM. Same read-out and setting: the figure for `O=C(CNC(=O)OCc1ccccc1)Nc1cccc(-c2ccnc3c(C(=O)c4cccs4)cnn23)c1` [Example 125, benzyl 2-oxo-2-({3-[3-(thien-2-ylcarbonyl)pyrazolo[1,5-a]pyrimidin-7-yl]phenyl}amino)ethylcarbamate] is 1 to 10 µM; for `C#CCOC(=O)NCC(=O)Nc1cccc(-c2ccnc3c(C(=O)c4cccs4)cnn23)c1` [Example 123, prop-2-ynyl 2-oxo-2-({3-[3-(thien-2-ylcarbonyl)pyrazolo[1,5-a]pyrimidin-7-yl]phenyl}amino)ethylcarbamate] it is 1 to 10 µM. On the same count and under the same terms, the figure for `CCCCCc1ccc(C(=O)Nc2cccc(-c3ccnc4c(C(=O)c5cccs5)cnn34)c2)cc1` [Example 92, 4-pentyl-N-{3-[3-(thien-2-ylcarbonyl)pyrazolo[1,5-a]pyrimidin-7-yl]phenyl}benzamide] is 10 to 50 µM. Same read-out and setting: the figure for `O=C(Nc1cccc(-c2ccnc3c(C(=O)c4cccs4)cnn23)c1)OCCc1ccsc1` [Example 179, 2-thien-3-ylethyl 3-[3-(thien-2-ylcarbonyl)pyrazolo[1,5-a]pyrimidin-7-yl]phenylcarbamate] is 1 to 10 µM. Consider `CCOC(=O)CNC(=O)Nc1cccc(-c2ccnc3c(C(=O)c4cccs4)cnn23)c1` [Example 10, ethyl N-[({3-[3-(thien-2-ylcarbonyl)pyrazolo[1,5-a]pyrimidin-7-yl]phenyl}amino)carbonyl]glycinate], for which the IC50 was in the range of 10 to 50 µM. Same read-out and setting: the figure for `O=C(CNC(=O)C1CCC1)Nc1cccc(-c2ccnc3c(C(=O)c4cccs4)cnn23)c1` [Example 127, N-[2-oxo-2-({3-[3-(thien-2-ylcarbonyl)pyrazolo[1,5-a]pyrimidin-7-yl]phenyl}amino)ethyl]cyclobutanecarboxamide] is 10 to 50 µM. The same measure, in the same setting: the figure for `CC1CCC(OC(=O)Nc2cccc(-c3ccnc4c(C(=O)c5cccs5)cnn34)c2)C1` (centres unmarked) [Example 188, 3-methylcyclopentyl 3-[3-(thien-2-ylcarbonyl)pyrazolo[1,5-a]pyrimidin-7-yl]phenylcarbamate] is under 1 µM. On the same count and under the same terms, the figure for `COc1ccc(S(=O)(=O)Nc2cccc(-c3ccnc4c(C(=O)c5cccs5)cnn34)c2)cc1` [Example 36, 4-methoxy-N-{3-[3-(thien-2-ylcarbonyl)pyrazolo[1,5-a]pyrimidin-7-yl]phenyl}benzenesulfonamide] is 1 to 10 µM; for `O=C(Nc1cccc(-c2ccnc3c(C(=O)c4cccs4)cnn23)c1)OCCN1CCOCC1` [Example 181, 2-morpholin-4-ylethyl 3-[3-(thien-2-ylcarbonyl)pyrazolo[1,5-a]pyrimidin-7-yl]phenylcarbamate] it is under 1 µM. As for `CN1CCCN(C(=O)Nc2cccc(-c3ccnc4c(C(=O)c5cccs5)cnn34)c2)CC1` [Example 167, 4-methyl-N-{3-[3-(thien-2-ylcarbonyl)pyrazolo[1,5-a]pyrimidin-7-yl]phenyl}-1,4-diazepane-1-carboxamide], the half-maximal inhibitory concentration (IC50) lay within 1 to 10 µM. On to `O=C(/C=C/c1ccccc1)Nc1cccc(-c2ccnc3c(C(=O)c4cccs4)cnn23)c1` [Example 71, (2E)-3-phenyl-N-{3-[3-(thien-2-ylcarbonyl)pyrazolo[1,5-a]pyrimidin-7-yl]phenyl}prop-2-enamide], for which the half-maximal inhibitory concentration (IC50) was 1 to 10 µM. Same read-out and setting: the same measure for `O=C(Nc1cccc(-c2ccnc3c(C(=O)c4cccs4)cnn23)c1)c1ccc(F)c(F)c1` [Example 102, 3,4-difluoro-N-{3-[3-(thien-2-ylcarbonyl)pyrazolo[1,5-a]pyrimidin-7-yl]phenyl}benzamide]: 1 to 10 µM; for `CSCCC(=O)Nc1cccc(-c2ccnc3c(C(=O)c4cccs4)cnn23)c1` [Example 50, 3-(methylthio)-N-{3-[3-(thien-2-ylcarbonyl)pyrazolo[1,5-a]pyrimidin-7-yl]phenyl}propanamide]: under 1 µM; for `O=C(CC1CCCC1)Nc1cccc(-c2ccnc3c(C(=O)c4cccs4)cnn23)c1` [Example 73, 2-cyclopentyl-N-{3-[3-(thien-2-ylcarbonyl)pyrazolo[1,5-a]pyrimidin-7-yl]phenyl}acetamide]: under 1 µM.

Values taken from US20060063784A1, “Method of using substituted pyrazolo [1,5-a] pyrimidines” (priority 2004, published 2006).
